Results from US8716493B2, “Multicyclic compounds and the use thereof” (Cephalon, Inc., priority 2000, dated 2014).

target: T1, human VEGFR2 cytoplasmic domain (Homo sapiens, UniProt P35968); test: Measurement of VEGFR2 kinase enzymatic activity (time-resolved fluorescence, PLC-γ/GST substrate); assay type: biochemical; conditions: Table 5
T1 construct: recombinant human baculovirus-expressed human VEGFR2 cytoplasmic domain; host or cells: baculovirus-expressed
Description: A 96-well FluoroNUNC MaxiSorp plate was coated with 100 μL/well of recombinant human PLC-γ/GST substrate solution at a concentration of 40 μg/mL in Tris-buffered saline (TBS). The VEGFR2 activity was assayed in a 100 μL assay mixture containing 50 mM HEPES (pH 7.4), 30 μM ATP, 10 mM MnCl2, 0.1% BSA, 2% DMSO, and 150 ng/mL recombinant human baculovirus-expressed human VEGFR2 cytoplasmic domain (prephosphorylated for 60 min at 4° C. in the presence of 30 μM ATP and 10 mM MnCl2 prior to use). The kinase reaction was allowed to proceed at 37° C. for 15 min. The europium-labeled anti-phosphotyrosine detection antibody was added at 1:5000 dilution in block buffer (3% BSA in TBST). After 1 hour of incubation at 37° C., 100 μL of enhancement solution (Wallac #1244-105) was added and the plate was gently agitated. After 5 min, the time-resolved fluorescence of the resulting solution was measured using the BMG PolarStar (Model #403) using excitation and emission wavelengths of 340 nm and 615 nm, respectively, a collection delay of 400 μsec and an integration time of 400 μsec.
(§1) Single-point inhibition data were calculated by comparing PARP, VEGFR2, or MLK3 activity in the presence of inhibitor to activity in the presence of DMSO only. Inhibition curves for compounds were generated by plotting percent inhibition versus log10 of the concentration of compound. IC50 values were calculated by nonlinear regression using the sigmoidal dose-response (variable slope) equation in GraphPad Prism as follows: y=bottom+(top−bottom)/(1+10^(log IC50^−x)*Hillslope) where y is the % activity at a given concentration of compound, x is the logarithm of the concentration of compound, bottom is the % inhibition at the lowest compound concentration tested, and top is the % inhibition at the highest compound concentration examined. The values for bottom and top were fixed at 0 and 100, respectively. IC50 values were reported as the average of at least three separate determinations.
The following Examples 5 to 10 present PARP, VEGFR2, and MLK3 inhibiting data for compounds of the present invention. […] For some compounds, inhibiting data is presented as percent inhibition at a specified concentration. Compounds are tabulated together with compound number, substituents, and enzyme inhibition data.

T1 sequence (P35968 786-1356 limits assumed): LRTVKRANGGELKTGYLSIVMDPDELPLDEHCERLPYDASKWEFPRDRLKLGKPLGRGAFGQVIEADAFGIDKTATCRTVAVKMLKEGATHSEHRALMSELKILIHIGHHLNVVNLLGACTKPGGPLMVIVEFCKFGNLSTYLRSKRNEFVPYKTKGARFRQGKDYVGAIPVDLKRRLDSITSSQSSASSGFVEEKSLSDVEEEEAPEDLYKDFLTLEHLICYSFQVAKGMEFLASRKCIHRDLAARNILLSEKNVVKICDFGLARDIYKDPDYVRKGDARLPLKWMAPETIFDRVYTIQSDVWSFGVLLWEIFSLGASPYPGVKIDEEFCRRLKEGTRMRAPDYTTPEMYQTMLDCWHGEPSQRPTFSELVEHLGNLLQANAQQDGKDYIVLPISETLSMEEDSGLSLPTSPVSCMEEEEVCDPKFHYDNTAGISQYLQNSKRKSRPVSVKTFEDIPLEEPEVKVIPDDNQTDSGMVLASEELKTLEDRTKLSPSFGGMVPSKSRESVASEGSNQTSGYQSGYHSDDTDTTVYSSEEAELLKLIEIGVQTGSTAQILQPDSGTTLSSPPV

Row | IC50 [nM] | Compound
1 | 698 | O=C1NC(=O)c2c1c1c(c3[nH]c4ccccc4c23)CCCC1 [Compound 11b, 5,7,9,10,11,12-Hexahydrocyclohexano[a]pyrrolo[3,4-c]carbazole-5(6H), 7(8H)-dione]
2 | 778 | Cn1c2ccccc2c2c3c(c4c(c21)CCCC4)C(=O)NC3=O [Compound 11d]
3 | 166 | O=C1NC(=O)c2c1c1ccccc1c1[nH]c3ccccc3c21 [Compound 11e]

Row | Compound | IC50 [nM]
4 | O=C1NCc2c3c(c4[nH]c5ccccc5c4c21)CCC3 [Compound 11a, 5,7,8,9,10,11-Hexahydrocyclopent[a]pyrrolo[3,4-c]carbazole-5(6H)-one] | 477

same assay, conditions: percent inhibition at 100 nM; Table 5

Row | Compound | VEGFR2 % @100 nM [% @100 nM]
5 | 9-Ethyl-8-propyl-5,7-dihydropyrrolo[3,4-c]carbazole-5(6H), 7(10H)-dione [Compound 11c] | 0

same assay, conditions: percent inhibition at 300 nM; Table 5

Row | Compound | VEGFR2 % @ 300 nM [%]
6 | O=C1NC(=O)c2c1c1c(c3[nH]c4ccccc4c23)CCO1 [Compound 11f, 5,7,10,11-Tetrahydrofuran[a-3,2]pyrrolo[3,4-c]carbazole-5(6H), 7(9H)-dione] | 3

target: recombinant human PARP (Homo sapiens, UniProt P09874); test: Measurement of PARP enzymatic activity (transfer of radiolabeled ADP-ribose from NAD+ to protein acceptor); assay type: biochemical; conditions: PARP IC50 (nM), Table 8
Sequence (P09874 whole entry): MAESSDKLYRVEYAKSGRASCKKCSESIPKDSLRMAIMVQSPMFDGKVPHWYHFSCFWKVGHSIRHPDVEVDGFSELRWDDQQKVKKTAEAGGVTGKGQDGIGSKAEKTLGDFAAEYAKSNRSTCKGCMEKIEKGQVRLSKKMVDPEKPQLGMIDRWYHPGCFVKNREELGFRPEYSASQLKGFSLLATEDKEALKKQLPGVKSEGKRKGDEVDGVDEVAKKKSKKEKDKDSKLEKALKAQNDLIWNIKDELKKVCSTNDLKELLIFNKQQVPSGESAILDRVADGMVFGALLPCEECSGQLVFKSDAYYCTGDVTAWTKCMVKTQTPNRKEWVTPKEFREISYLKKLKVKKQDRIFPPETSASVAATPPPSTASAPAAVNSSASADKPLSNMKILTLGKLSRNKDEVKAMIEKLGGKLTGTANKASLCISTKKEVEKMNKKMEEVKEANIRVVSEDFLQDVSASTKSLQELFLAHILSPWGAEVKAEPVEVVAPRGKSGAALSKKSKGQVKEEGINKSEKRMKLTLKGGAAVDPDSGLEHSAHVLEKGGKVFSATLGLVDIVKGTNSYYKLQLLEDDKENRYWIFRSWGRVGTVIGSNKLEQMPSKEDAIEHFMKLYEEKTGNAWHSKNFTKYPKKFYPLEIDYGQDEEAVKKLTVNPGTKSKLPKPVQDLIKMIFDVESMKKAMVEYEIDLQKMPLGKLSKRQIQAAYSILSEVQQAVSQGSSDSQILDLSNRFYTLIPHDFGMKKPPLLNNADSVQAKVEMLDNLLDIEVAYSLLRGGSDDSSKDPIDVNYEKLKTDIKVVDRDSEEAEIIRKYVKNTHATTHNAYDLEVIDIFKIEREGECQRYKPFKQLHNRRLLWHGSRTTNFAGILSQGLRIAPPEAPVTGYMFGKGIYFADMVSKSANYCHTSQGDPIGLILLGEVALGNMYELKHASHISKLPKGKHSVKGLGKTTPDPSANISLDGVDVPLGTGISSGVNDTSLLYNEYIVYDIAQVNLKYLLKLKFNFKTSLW
How it was run: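 Radiometric assay measuring transfer of [32P]ADP-ribose from NAD+ (100 μM, 2 uCi/mL label) to histone or PARP automodification, 12 min at room temperature; acid-insoluble radioactivity counted by scintillation.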

Row | Compound | IC50 [nM]
7 | O=C1NC(=O)c2c1c1c(c3[nH]c4ccc(OC(=O)N5CCOCC5)cc4c23)CCC1 [Compound 15a] | 35
8 | CN1CCN(C(=O)Oc2ccc3[nH]c4c5c(c6c(c4c3c2)C(=O)NC6=O)CCC5)CC1 [Compound 15b] | 51
9 | COCCNC(=O)Oc1ccc2[nH]c3c4c(c5c(c3c2c1)C(=O)NC5=O)CCC4 [Compound 15c] | 40
10 | O=C(NCCCn1ccnc1)Oc1ccc2[nH]c3c4c(c5c(c3c2c1)C(=O)NC5=O)CCC4 [Compound 15d] | 32
11 | O=C(NCCCN1CCCC1=O)Oc1ccc2[nH]c3c4c(c5c(c3c2c1)C(=O)NC5=O)CCC4 [Compound 15e] | 28
12 | O=C(NCc1cccnc1)Oc1ccc2[nH]c3c4c(c5c(c3c2c1)C(=O)NC5=O)CCC4 [Compound 15f] | 34
13 | O=C(NCCc1ccccn1)Oc1ccc2[nH]c3c4c(c5c(c3c2c1)C(=O)NC5=O)CCC4 [Compound 15g] | 36
14 | CN(CCc1ccccn1)C(=O)Oc1ccc2[nH]c3c4c(c5c(c3c2c1)C(=O)NC5=O)CCC4 [Compound 15h] | 39
15 | O=C(NN1CCOCC1)Oc1ccc2[nH]c3c4c(c5c(c3c2c1)C(=O)NC5=O)CCC4 [Compound 15k] | 20
16 | O=C1NC(=O)c2c1c1c(c3[nH]c4ccc(OC(=O)N5CCN(CCO)CC5)cc4c23)CCC1 [Compound 15l] | 15
17 | O=C(NCCc1ccccn1)Oc1ccc2[nH]c3c4c(c5c(c3c2c1)C(=O)NC5=O)CCC4 [Compound 15m] | 31

same assay, conditions: PARP IC50, Table 18

Row | Compound | IC50 [nM]
18 | O=C(NCCn1cncn1)Oc1ccc2[nH]c3c4c(c5c(c3c2c1)C(=O)NC5=O)CCC4 [Compound 15n] | 38
19 | O=C1NC(=O)c2c1c1c(c3[nH]c4ccc(OC(=O)N5CCOCCOCCOCC5)cc4c23)CCC1 [Compound 15o] | 76
20 | O=C1NC(=O)c2c1c1c(c3[nH]c4ccc(OC(=O)N5CCCCC5)cc4c23)CCC1 [Compound 15p] | 82

same assay, conditions: Table 4; read-out: PARP IC50

Row | IC50 [nM] | Compound
21 | 5 | O=C1NC(=O)c2c1c1c(c3[nH]cc(Br)c23)CCC1 [Compound 8c, 3-Bromo-1,6,7,8-tetrahydrocyclopent[g]indole-4,5-dicarboxylate imide]
22 | 6 | N#Cc1c[nH]c2c3c(c4c(c12)C(=O)NC4=O)CCC3 [Compound 8d, 3-Cyano-1,6,7,8-tetrahydrocyclopent[g]indole-4,5-dicarboxylate imide]
23 | 1820 | O=c1[nH][nH]c(=O)c2c1c1c(c3[nH]ccc32)CCC1 [Compound 8e, 1,6,7,8-Tetrahydrocyclopent[g]indole-4,5-dicarboxylate hydrazide]
24 | 3 | O=C1NC(=O)c2c1c1c(c3[nH]c4ncccc4c23)CCC1 [Compound 8h]

same assay, conditions: Table 7; read-out: PARP IC50

Row | IC50 [nM] | Compound
25 | 224 | COc1ccc2c(c1)[nH]c1c3c(c4c(c12)C(=O)NC4=O)CCC3 [Compound 14a]
26 | 19 | COc1cccc2[nH]c3c4c(c5c(c3c12)C(=O)NC5=O)CCC4 [Compound 14b]

same assay, conditions: Table 18; read-out: PARP IC50

Row | Compound | IC50 [nM]
27 | CCOCCOc1ccnc2[nH]c3c4c(c5c(c3c12)C(=O)NC5=O)CCC4 [Compound 8ab] | 11
28 | O=C1NC(=O)c2c1c1c(c3[nH]c4c(ccc[n+]4[O-])c23)CCC1 [Compound 8l] | 38
29 | COc1cc[n+]([O-])c2[nH]c3c4c(c5c(c3c12)C(=O)NC5=O)CCC4 [Compound 8m] | 17
30 | O=C1NC(=O)c2c1c1c(c3[nH]c4nc(O)ccc4c23)CCC1 [Compound 8n] | 6
31 | CO[n+]1cccc2c3c4c(c5c(c3[nH]c21)CCC5)C(=O)NC4=O [Compound 8o] | 4
32 | O=C1NC(=O)c2c1c1c(c3[nH]c4nc(O)c(Br)cc4c23)CCC1 [Compound 8p] | 20
33 | O=C1NC(=O)c2c1c1c(c3[nH]c4nc(O)c(Cl)cc4c23)CCC1 [Compound 8s] | 14
34 | COc1cnc2[nH]c3c4c(c5c(c3c2c1)C(=O)NC5=O)CCC4 [Compound 8w] | 4
35 | COc1ccnc2[nH]c3c4c(c5c(c3c12)C(=O)NC5=O)CCC4 [Compound 8x] | 4
36 | CCOc1ccnc2[nH]c3c4c(c5c(c3c12)C(=O)NC5=O)CCC4 [Compound 8y] | 5
37 | O=C1NC(=O)c2c1c1c(c3[nH]c4nccc(Cl)c4c23)CCC1 [Compound 8z] | 9
38 | O=C1NC(=O)c2c1c1c(c3[nH]c4cccc(O)c4c23)CCC1 [Compound 14c] | 176
39 | O=C1NC(=O)c2c1c1c(c3[nH]c4cccc(OCCN5CCOCC5)c4c23)CCC1 [Compound 14d] | 441
40 | CCN(CC)CCOc1cccc2[nH]c3c4c(c5c(c3c12)C(=O)NC5=O)CCC4 [Compound 14e] | 526
41 | COCCOc1cccc2[nH]c3c4c(c5c(c3c12)C(=O)NC5=O)CCC4 [Compound 14f] | 25
42 | CCOc1cccc2[nH]c3c4c(c5c(c3c12)C(=O)NC5=O)CCC4 [Compound 14g] | 56
43 | CC(C)Oc1cccc2[nH]c3c4c(c5c(c3c12)C(=O)NC5=O)CCC4 [Compound 14h] | 207
44 | CCOCCOc1cccc2[nH]c3c4c(c5c(c3c12)C(=O)NC5=O)CCC4 [Compound 14i] | 36
45 | CC(C)OCCOc1cccc2[nH]c3c4c(c5c(c3c12)C(=O)NC5=O)CCC4 [Compound 14j] | 70
46 | O=C1NC(=O)c2c1c1c(c3[nH]c4cccc(OCCO)c4c23)CCC1 [Compound 14k] | 83
47 | COc1ccc2[nH]c3c4c(c5c(c3c2c1OC)C(=O)NC5=O)CCC4 [Compound 14l] | 21
48 | COc1c(Br)ccc2[nH]c3c4c(c5c(c3c12)C(=O)NC5=O)CCC4 [Compound 14m] | 67
49 | COc1c(I)ccc2[nH]c3c4c(c5c(c3c12)C(=O)NC5=O)CCC4 [Compound 14n] | 126
50 | COc1c(C#N)ccc2[nH]c3c4c(c5c(c3c12)C(=O)NC5=O)CCC4 [Compound 14o] | 7

The remaining lines, values ahead:

Row | IC50 [nM] | Compound
51 | 10 | COc1cccc2c1c1c3c(c4c(c1n2CN1CCOCC1)CCC4)C(=O)N(CN1CCOCC1)C3=O [Compound 16a]
52 | 11 | COc1cccc2[nH]c3c4c(c5c(c3c12)C(=O)N(CN1CCOCC1)C5=O)CCC4 [Compound 16d]
53 | 14 | COc1cccc2[nH]c3c4c(c5c(c3c12)C(=O)N(CN1CCN(C)CC1)C5=O)CCC4 [Compound 16e]
54 | 53 | CN(C)CN1C(=O)c2c3c(c4[nH]c5ccccc5c4c2C1=O)CCC3 [Compound 16i]

target: T2, MLK3 (Homo sapiens, UniProt Q16584); test: Measurement of MLK3 enzymatic activity (32P phosphorylation of myelin basic protein); assay type: biochemical; conditions: percent inhibition at 1 μM; Table 5
T2 construct: 2 μg/mL of baculoviral human GST-MLK1 kinase domain; GST (N); host or cells: baculovirus expression
T2 sequence (Q16584 117-379 limits assumed): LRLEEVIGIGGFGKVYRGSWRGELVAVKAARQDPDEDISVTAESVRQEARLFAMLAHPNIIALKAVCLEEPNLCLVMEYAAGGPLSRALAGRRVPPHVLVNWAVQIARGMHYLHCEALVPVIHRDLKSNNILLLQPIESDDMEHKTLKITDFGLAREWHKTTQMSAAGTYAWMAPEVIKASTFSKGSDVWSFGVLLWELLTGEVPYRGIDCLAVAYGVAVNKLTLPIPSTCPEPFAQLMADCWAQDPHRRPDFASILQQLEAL
Description: The activity assay for MLK3 was performed in Millipore Multiscreen plates. Each 50 μL assay mixture contained 50 mM HEPES (pH 7.0), 1 mM EGTA, 10 mM MgCl2, 1 mM DTT, 25 mM β-glycerophosphate, 100 μM ATP, 1 μCi [γ-^32P]ATP, 0.1% BSA, 500 μg/mL myelin basic protein, 2% DMSO, various concentrations of test compounds, and 2 μg/mL of baculoviral human GST-MLK1 kinase domain. Samples were incubated for 15 min at 37° C. The reaction was stopped by adding ice-cold 50% TCA and the proteins were allowed to precipitate for 30 min at 4° C.
as §1
For some compounds, inhibiting data is presented as percent inhibition at a specified concentration. Compounds are tabulated together with compound number, substituents, and enzyme inhibition data.

Row | MLK3 % @ 1 μM [%] | Compound
55 | 26 | O=C1NC(=O)c2c1c1c(c3[nH]c4ccccc4c23)CCCC1 [Compound 11b, 5,7,9,10,11,12-Hexahydrocyclohexano[a]pyrrolo[3,4-c]carbazole-5(6H), 7(8H)-dione]
56 | 52 | Cn1c2ccccc2c2c3c(c4c(c21)CCCC4)C(=O)NC3=O [Compound 11d]
57 | 35 | O=C1NC(=O)c2c1c1ccccc1c1[nH]c3ccccc3c21 [Compound 11e]

Row | Compound | MLK3 % @ 1 μM [%]
58 | 9-Ethyl-8-propyl-5,7-dihydropyrrolo[3,4-c]carbazole-5(6H), 7(10H)-dione [Compound 11c] | 46
59 | O=C1NC(=O)c2c1c1c(c3[nH]c4ccccc4c23)CCO1 [Compound 11f, 5,7,10,11-Tetrahydrofuran[a-3,2]pyrrolo[3,4-c]carbazole-5(6H), 7(9H)-dione] | 62
